Measurements taken from patent publication US12534469B2 (CHILDREN'S HOSPITAL MEDICAL CENTER, priority 2020, dated 2026).

Experiments:
Assay type in all cases: biochemical
FLT3 = biological target: T1, FLT3 (Homo sapiens, UniProt P36888); assay: RBC HotSpot Kinase Assay, FLT3
T1 construct: purchased Reaction Biology (RBC HotSpot Kinase Assay)
T1 sequence (P36888 564-958 limits assumed): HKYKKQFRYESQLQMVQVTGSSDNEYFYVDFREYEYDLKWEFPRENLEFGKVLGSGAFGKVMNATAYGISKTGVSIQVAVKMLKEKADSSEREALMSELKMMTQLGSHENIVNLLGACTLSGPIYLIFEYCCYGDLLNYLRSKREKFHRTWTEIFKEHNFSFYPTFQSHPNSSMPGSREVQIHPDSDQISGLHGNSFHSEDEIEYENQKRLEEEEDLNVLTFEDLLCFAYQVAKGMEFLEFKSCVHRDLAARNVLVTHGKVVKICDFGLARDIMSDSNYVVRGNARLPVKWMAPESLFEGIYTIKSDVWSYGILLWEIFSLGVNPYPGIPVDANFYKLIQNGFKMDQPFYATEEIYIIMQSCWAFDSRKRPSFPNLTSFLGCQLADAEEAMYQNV
From the text: (§1) This assay uses the isolated kinase enzyme. This assay is very useful for determining competition of the inhibitor for ATP and/or substrates and for measuring the kinetics of enzyme inhibition. […] Unlike kinase binding assays that measure competition for ATP, the HotSpot Kinase Assay is a functional assay that measures catalytic activity; as such it measures relative functional potency regardless of the mechanism of enzyme inhibition. This assay uses the form of the various enzymes that are easiest to express, which may not necessarily be the form of the enzyme that exist in the cell. (Sometimes the carboxy terminus has been truncated to aid in expression, or, if it is a receptor kinase, the enzyme itself is isolated from the other parts of the receptor that are involved in regulating kinase activity.)
(§2) The reagent used was as follows: Base Reaction buffer; 20 mM Hepes (pH 7.5), 10 mM MgCl2, 1 mM EGTA, 0.01% Brij35, 0.02 mg/ml BSA, 0.1 mM Na3VO4, 2 mM DTT, 1% DMSO. Required cofactors were added individually to each kinase reaction.
(§3) The reaction procedure was as follows: • 1) Substrates were prepared in freshly prepared Reaction Buffer. • 2) Any required cofactors were delivered to the substrate solution above. • 3) Kinase was delivered into the substrate solution and gently mixed. • 4) Compounds were delivered in 100% DMSO into the kinase reaction mixture by Acoustic technology (Echo550; nanoliter range), followed by incubation for 20 min at room temp. • 5) ^33P-ATP was delivered into the reaction mixture to initiate the reaction. • 6) The mixture was incubated for 2 hours at room temperature. • 7) Kinase activity was detected by P81 filter-binding method.

IRAK4 = biological target: T2, IRAK4 (Homo sapiens, UniProt Q9NWZ3); assay: RBC HotSpot Kinase Assay, IRAK4; design: purchased Reaction Biology (RBC HotSpot Kinase Assay)
T2 sequence (Q9NWZ3 1-460): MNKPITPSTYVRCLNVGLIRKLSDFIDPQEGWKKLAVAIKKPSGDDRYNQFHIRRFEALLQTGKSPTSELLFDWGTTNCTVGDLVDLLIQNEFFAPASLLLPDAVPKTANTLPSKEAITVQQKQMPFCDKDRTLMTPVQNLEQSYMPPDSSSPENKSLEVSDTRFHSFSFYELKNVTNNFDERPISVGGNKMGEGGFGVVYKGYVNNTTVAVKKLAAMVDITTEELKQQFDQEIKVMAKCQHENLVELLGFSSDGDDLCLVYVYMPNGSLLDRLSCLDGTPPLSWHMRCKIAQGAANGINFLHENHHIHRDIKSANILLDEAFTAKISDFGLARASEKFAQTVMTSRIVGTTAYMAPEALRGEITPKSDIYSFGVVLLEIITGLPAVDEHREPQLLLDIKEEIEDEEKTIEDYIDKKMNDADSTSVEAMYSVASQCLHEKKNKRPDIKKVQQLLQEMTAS
From the text: as §1, §2, §3

IRAK1 = biological target: T3, IRAK1 (Homo sapiens, UniProt P51617); assay: RBC HotSpot Kinase Assay, IRAK1
T3 construct: purchased Reaction Biology (RBC HotSpot Kinase Assay)
T3 sequence (P51617 whole entry): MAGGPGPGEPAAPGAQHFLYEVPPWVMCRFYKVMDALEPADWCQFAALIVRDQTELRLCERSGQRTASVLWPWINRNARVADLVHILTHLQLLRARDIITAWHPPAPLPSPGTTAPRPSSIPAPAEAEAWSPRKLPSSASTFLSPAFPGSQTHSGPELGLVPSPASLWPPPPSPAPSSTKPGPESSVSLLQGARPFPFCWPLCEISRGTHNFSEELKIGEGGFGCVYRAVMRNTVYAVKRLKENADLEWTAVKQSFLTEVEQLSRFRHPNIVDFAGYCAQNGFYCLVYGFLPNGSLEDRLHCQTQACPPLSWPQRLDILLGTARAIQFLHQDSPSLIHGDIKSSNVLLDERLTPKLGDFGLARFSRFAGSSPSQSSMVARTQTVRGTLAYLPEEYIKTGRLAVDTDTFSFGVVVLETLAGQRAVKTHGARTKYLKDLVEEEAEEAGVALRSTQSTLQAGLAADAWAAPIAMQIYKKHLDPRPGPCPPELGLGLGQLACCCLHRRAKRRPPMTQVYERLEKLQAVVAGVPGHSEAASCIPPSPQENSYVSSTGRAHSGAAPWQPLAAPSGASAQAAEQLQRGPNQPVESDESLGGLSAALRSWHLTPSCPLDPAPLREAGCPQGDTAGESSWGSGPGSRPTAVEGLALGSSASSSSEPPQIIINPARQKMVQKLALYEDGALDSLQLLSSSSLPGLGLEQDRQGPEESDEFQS
From the text: as §1, §2, §3

IC50 (FLT3)	IC50 (IRAK4)	IC50 (IRAK1)	Compound
8 nM	2670 nM	1060 nM	Cc1oncc1-c1ccc2ncc(-c3cccc(NC4CCC5(CNC5)C4)n3)n2n1 (stereo not drawn) [Compound 50, N-(6-(6-(5-methylisoxazol-4-yl)imidazo[1,2-b]pyridazin-3-yl)pyridin-2-yl)-2-azaspiro[3.4]octan-6-amine]
4 nM	1410 nM	2440 nM	CC(C)(O)Cn1cc(-c2ccc3ncc(-c4cccc(N[C@@H]5CCCNC5)n4)n3n2)cn1 [Compound 18, (R)-2-methyl-1-(4-(3-(6-(piperidin-3-ylamino)pyridin-2-yl)imidazo[1,2-b]pyridazin-6-yl)-1 H-pyrazol-1-yl)propan-2-ol]
1 nM	36 nM	3590 nM	FC(F)[C@H]1CNC[C@@H]1Nc1cccc(-c2cnc3ccc(C4CC4)nn23)n1 [Compound 72, 6-(6-cyclopropylimidazo[1,2-b]pyridazin-3-yl)-N-((3R,4S)-4-(difluoromethyl)pyrrolidin-3-yl)pyridin-2-amine]
3 nM	45 nM	3970 nM	F[C@H]1CNC[C@@H]1Nc1cccc(-c2cnc3ccc(C4CC4)nn23)n1 [Compound 69, 6-(6-cyclopropylimidazo[1,2-b]pyridazin-3-yl)-N-((3S,4S)-4-fluoropyrrolidin-3-yl)pyridin-2-amine]
3 nM	113 nM	2220 nM	Cn1cc(-c2ccc3ncc(-c4cccc(NC5CC6(CCNC6)C5)n4)n3n2)cn1 (stereo not drawn) [Compound 42, N-(6-(6-(1-methyl-1H-pyrazol-4-yl)imidazo[1,2-b]pyridazin-3-yl)pyridin-2-yl)-6-azaspiro[3.4]octan-2-amine]
< 0.5 nM	2 nM	375 nM	COc1cc2ncc(-c3cccc(N[C@H]4CNC[C@@H]4C)n3)n2nc1C1CC1 [Compound 98, 6-(6-cyclopropyl-7-methoxyimidazo[1,2-b]pyridazin-3-yl)-N-((3R,4S)-4-methylpyrrolidin-3-yl)pyridin-2-amine]
5 nM	609 nM	1620 nM	CC(C)n1cc(-c2ccc3ncc(-c4cccc(NC5CCNC5)n4)n3n2)cn1 (stereo not drawn) [Compound 27, 6-(6-(1-isopropyl-1H-pyrazol-4-yl)imidazo[1,2-b]pyridazin-3-yl)-N-(pyrrolidin-3-yl)pyridin-2-amine]
2 nM	37 nM	937 nM	COc1cc2ncc(-c3cccc(N[C@H]4CNC[C@@H](F)C4)n3)n2nc1C1(C(F)(F)F)CC1 [Compound 86, N-((3R,5S)-5-fluoropiperidin-3-yl)-6-(7-methoxy-6-(1-(trifluoromethyl)cyclopropyl)imidazo[1,2-b]pyridazin-3-yl)pyridin-2-amine]
0.9 nM	20 nM	114 nM	c1cc(NC2CCNC2)nc(-c2cnc3ccc(-c4cn[nH]c4)nn23)c1 (stereo not drawn) [Compound 26, 6-(6-(1H-pyrazol-4-yl)imidazo[1,2-b]pyridazin-3-yl)-N-(pyrrolidin-3-yl)pyridin-2-amine]
3 nM	114 nM	1360 nM	CC(C)(O)Cn1cc(-c2ccc3ncc(-c4cccc(N[C@H]5CNC[C@@H]5F)n4)n3n2)cn1 [Compound 4, 1-(4-(3-(6-(((3S,4S)-4-fluoropyrrolidin-3-yl)amino)pyridin-2-yl)imidazo[1,2-b]pyridazin-6-yl)-1 H-pyrazol-1-yl)-2-methylpropan-2-ol]
< 0.5 nM	28 nM	269 nM	c1cc(NC2CCC3(CNC3)C2)nc(-c2cnc3ccc(-c4cnn5ccccc45)nn23)c1 (stereo not drawn) [Compound 63, N-(6-(6-(pyrazolo[1,5-a]pyridin-3-yl)imidazo[1,2-b]pyridazin-3-yl)pyridin-2-yl)-2-azaspiro[3.4]octan-6-amine]
9 nM	630 nM	3410 nM	CC(C)n1cc(-c2ccc3ncc(-c4cccc(NC5CC6(CNC6)C5)n4)n3n2)cn1 [Compound 32, N-(6-(6-(1-isopropyl-1H-pyrazol-4-yl)imidazo[1,2-b]pyridazin-3-yl)pyridin-2-yl)-2-azaspiro[3.3]heptan-6-amine]
0.5 nM	6 nM	49 nM	c1cc(NC2CC3(CNC3)C2)nc(-c2cnc3ccc(-c4cn[nH]c4)nn23)c1 [Compound 31, N-(6-(6-(1H-pyrazol-4-yl)imidazo[1,2-b]pyridazin-3-yl)pyridin-2-yl)-2-azaspiro[3.3]heptan-6-amine]
8 nM	586 nM	704 nM	CC(C)(O)Cn1cc(-c2ccc3ncc(-c4cccc(N[C@H]5CCNC[C@@H]5F)n4)n3n2)cn1 [Compound 8, 1-(4-(3-(6-(((3S,4S)-3-fluoropiperidin-4-yl)amino)pyridin-2-yl)imidazo[1,2-b]pyridazin-6-yl)-1 H-pyrazol-1-yl)-2-methylpropan-2-ol]
3 nM	100 nM	1850 nM	CC(C)(O)Cn1cc(-c2ccc3ncc(-c4cccc(N[C@H]5CNC[C@@H]5C(F)(F)F)n4)n3n2)cn1 [Compound 14, 2-methyl-1-(4-(3-(6-(((3R,4S)-4-(trifluoromethyl)pyrrolidin-3-yl)amino)pyridin-2-yl)imidazo[1,2-b]pyridazin-6-yl)-1 H-pyrazol-1-yl)propan-2-ol]
18 nM	3480 nM	> 10000 nM	c1cc(NC2CC3(CCNC3)C2)nc(-c2cnc3ccc(-c4cnn(C5CCOCC5)c4)nn23)c1 (stereo not drawn) [Compound 41, N-(6-(6-(1-(tetrahydro-2H-pyran-4-yl)-1H-pyrazol-4-yl)imidazo[1,2-b]pyridazin-3-yl)pyridin-2-yl)-6-azaspiro[3.4]octan-2-amine]
19 nM	3200 nM	> 10000 nM	c1ccc(-n2cc(-c3ccc4ncc(-c5cccc(NC6CCC7(CNC7)C6)n5)n4n3)cn2)cc1 (stereo not drawn) [Compound 47, N-(6-(6-(1-phenyl-1H-pyrazol-4-yl)imidazo[1,2-b]pyridazin-3-yl)pyridin-2-yl)-2-azaspiro[3.4]octan-6-amine]
< 0.5 nM	< 0.5 nM	75 nM	COc1cc2ncc(-c3cccc(N[C@H]4CNC[C@@H]4F)n3)n2nc1-c1cn[nH]c1 [Compound 119]
0.6 nM	345 nM	3140 nM	c1cc(N[C@@H]2CCCNC2)nc(-c2cnc3ccc(C4CC4)nn23)c1 [Compound 76, (R)-6-(6-cyclopropylimidazo[1,2-b]pyridazin-3-yl)-N-(piperidin-3-yl)pyridin-2-amine]
4 nM	148 nM	5860 nM	CO[C@H]1CNC[C@@H]1Nc1cccc(-c2cnc3ccc(C4CC4)nn23)n1 [Compound 74, 6-(6-cyclopropylimidazo[1,2-b]pyridazin-3-yl)-N-((3S,4S)-4-methoxypyrrolidin-3-yl)pyridin-2-amine]
2 nM	4 nM	274 nM	CC1(C)Cc2c(-c3ccc4ncc(-c5cccc(NC6CNCC6(F)F)n5)n4n3)cnn2C1 (stereo not drawn) [Compound 60, N-(4,4-difluoropyrrolidin-3-yl)-6-(6-(5,5-dimethyl-5,6-dihydro-4H-pyrrolo[1,2-b]pyrazol-3-yl)imidazo[1,2-b]pyridazin-3-yl)pyridin-2-amine]
